The record followed here is patent US20250129334A1, “LINEAGE SPECIFICATION DURING STEM CELL TRANSITION” (Amniotics AB, priority 2021, published 2025).

In assay [1] the test system is HE cells. Briefly: HE subculture with metabolic regulators, flow cytometry of hematopoietic output. The class given is cell-based, human. The text has this:
The RB9-CB1 human iPSC line (Woods, N.-B. et al. Brief report: efficient generation of hematopoietic precursors and progenitors from human pluripotent stem cell lines. Stem Cells 29, 1158-1164 (2011)) was co-cultured with mouse embryonic fibroblasts (MEFs, Millipore), passaged every six days and processed to form embryoid bodies (EBs) as described previously (Guibentif, C. et al. Single-Cell Analysis Identifies Distinct Stages of Human Endothelial to-Hematopoietic Transition. Cell Reports 19, 10-19 (2017)). The differentiation protocol used in this study was previously described (Ditadi, A. & Sturgeon, C. M. Directed differentiation of definitive hemogenic endothelium and hematopoietic progenitors from human pluripotent stem cells. Methods 101, 65-72 (2016)), however, small modifications were made to induce both primitive and definitive hematopoiesis, as indicated below and in FIG. 6, a. Newly-formed EBs were first kept in SFD medium supplemented with 1 ng/ml Activin A (on days 0-2) and 3 μM CHIR99021 (on day 2 only). At day 3, media was switched to “Day 3-SP34” medium supplemented with 1 ng/ml Activin A (on day 3 only) and 3 μM CHIR99021 (on day 3 only) until day 6. On day 6, media was replaced by “Day 6-SP34” medium, until day 8. In some experiments where indicated, to obtain a higher yield of HSC-like cells, EBs were kept until day 10: in this case, EBs were plated onto Matrigel (8 μg/cm2, Corning)-coated dishes on day 8 and kept until day 10. Media was changed every day, except on days 5 and 7. On day 8 or 10 (as indicated), EBs were singularized with 5-6 rounds of 5-minute incubations with TryPLE Express (Thermo Fisher Scientific). CD34^+ cells were selected using the human CD34 MicroBead kit (Miltenyi Biotec) and stained with CD34-FITC, CD73-PE, VECad-PerCPCy5.5, CD38-PC7, CD184-APC, CD45-AF700, CD43-APCH7, GPA-eF450, CD90-BV605 and the viability marker 7AAD in order to sort HE (CD34^+CD43^−CXCR4^−CD73^−CD90^+VECad^+), EHT (CD34^+CD43^intCXCR4^−CD73^−CD90^+VECad^+) and HSC-like (CD34^+CD43^+CD90^+CD38^−) cells, according to previously described markers (Guibentif, C. et al. Single-Cell Analysis Identifies Distinct Stages of Human Endothelial to-Hematopoietic Transition. Cell Reports 19, 10-19 (2017); Ditadi, A. et al. Human definitive haemogenic endothelium and arterial vascular endothelium represent distinct lineages. Nat Cell Biol 17, 580-591 (2015); and Choi, K.-D. et al. Identification of the Hemogenic Endothelial Progenitor and Its Direct Precursor in Human Pluripotent Stem Cell Differentiation Cultures. Cell Reports 2, 553-567 (2012)).
Sorted HE (40,000), EHT (30,000) and HSC-like (5-20,000) cells were plated onto Matrigel (16 μg/cm2, Corning)-coated 96-well flat bottom plates in HE medium with 1% penicillin-streptomycin and kept in a humidified incubator at 37° C., 5% C02, 4% 02 overnight. The following day (day 0), wells were washed twice with PBS and fresh HE medium was added, together with 2-DG (1 mM), UK5099 (10 μM), DCA (3 mM or 10 mM), TSA (60 nM), TCP (300 nM), ACSS2i (5 μM), C646 (10 μM), CP-640186 (5 μM) or Atorvastatin (0.5 μM), where indicated. Media was changed and drugs were added every 2 days and cells were kept in a humidified incubator at 37° C., 5% CO2, 20% O2 for 6-7 days. Pictures were taken using an Olympus IX70 microscope equipped with a CellSens DP72 camera and CellSens Standard 1.6 software (Olympus). For single cell subcultures, single HE cells were directly sorted with a BD FACSAriaIII onto OP9-DL1 stroma in flat-bottom 96-well plates with 120 μl OP9 medium (OptiMEM medium with Glutamax (Invitrogen) with 10% FCS, 1% penicillin-streptomycin solution (Thermo Fisher Scientific) and 1% 2-mercaptoethanol (Invitrogen)) with SCF, IL-6, IL-11, IGF1 and EPO, and with or without 10 μM UK, or 3 mM or 10 mM DCA. The cells were kept in a humidified incubator at 37° C., 5% CO2, 4% O2 and media was replaced every 4 days. […]

Assay [2] deals with iPSC-CD34+. Briefly: NK cell cytotoxic degranulation (CD107) with or without K562 co-culture. It counts as cell-based, human. The settings on record: for degranulated NK cells (CD3-CD56+CD16+CD107+ cells) / increase in degranulated NK cells vs untreated control / basal degranulation: absence of K562; for degranulated NK cells (CD3-CD56+CD16+CD107+ cells) / increase in degranulated NK cells vs untreated control: DCA 10 mM, CP 2.5 μM, cholesterol 0.5x; for basal degranulation: vs ctrl; for level of degranulated NK cells when exposed to K562 cells: co-culture with K562. An excerpt: NK cell anti-tumour activity can occur via cytotoxic degranulation. CD107 is a marker that is present in the cytotoxic vesicles of NK cells, and so is not expressed on the cell surface of inactivated NK cells. However, upon NK cell activation and degranulation, the CD107 target becomes detectable on the cell surface. Therefore, the level of CD107 detected on NK cells correlates with cytotoxic degranulation. In this assay, several exemplary metabolic regulators were used to assess cytotoxic degranulation in a co-culture assay with K562 cells (an exemplary cancer cell model). As a negative control, iPSC-CD34^+ untreated with a metabolic regulator were used, in which a basal level of 3.27% of degranulated NK cells (CD3^−CD56^+CD16^+CD107^+ cells) were observed (FIG. 16A, top panel).

Assay [3] concerns HE, EHT and HSC-like cells. The following applies: 100 μM FCCP; all cell types. On the procedure: On days 3 and 6 of subculture, cells were collected after a 2-minute incubation at 37° C. with StemPro Accutase Cell Dissociation Reagent and stained with CD34-FITC, CD14-PE, CD33-PC7, CD11b-APC, CD45-AF700, CD43-APCH7, GPA-eF450, CD90-BV605 and the viability marker 7AAD and fluorescence was measured on a BD LSRII. To measure mitochondrial activity, cells were incubated with Tetramethylrhodamine ethyl ester (TMRE, 20 nM) for 30 minutes at 37° C. Negative controls were incubated with 100 μM FCCP for 30 minutes at 37° C., prior to TMRE staining. […] III and MFI levels—MFI FMO were calculated. […] III. To measure proliferation, cells were processed with the CellTrace Violet (CTV) kit according to manufacturer's instructions (10-minute incubation) and fluorescence was measured on a BD LSRFortessa. To measure EdU incorporation, HE cells were assessed on day 1 or 2 of subculture after 24 h EdU pulses, using Click-iT EdU Flow Cytometry Cell Proliferation Assay (Thermo Fisher Scientific, C10424), according to manufacturer's instructions. Flow cytometry outputs were analyzed on FlowJo Software, with initial gatings on SSC-A/FSC-A, FSC-H/FSC-A, SSC-H/SSC-A and 7-AAD to exclude doublets and dead cells in all experiments.

Assay [4] deals with HSC-like cells. The assay can be described thus: HSC-like cell subculture with metabolic regulators, flow cytometry. It counts as cell-based, human. The settings on record: day 3, 2-DG 1 mM. An excerpt:
The RB9-CB1 human iPSC line (Woods, N.-B. et al. Brief report: efficient generation of hematopoietic precursors and progenitors from human pluripotent stem cell lines. Stem Cells 29, 1158-1164 (2011)) was co-cultured with mouse embryonic fibroblasts (MEFs, Millipore), passaged every six days and processed to form embryoid bodies (EBs) as described previously (Guibentif, C. et al. Single-Cell Analysis Identifies Distinct Stages of Human Endothelial to-Hematopoietic Transition. Cell Reports 19, 10-19 (2017)). The differentiation protocol used in this study was previously described (Ditadi, A. & Sturgeon, C. M. Directed differentiation of definitive hemogenic endothelium and hematopoietic progenitors from human pluripotent stem cells. Methods 101, 65-72 (2016)), however, small modifications were made to induce both primitive and definitive hematopoiesis, as indicated below and in FIG. 6, a. Newly-formed EBs were first kept in SFD medium supplemented with 1 ng/ml Activin A (on days 0-2) and 3 μM CHIR99021 (on day 2 only). At day 3, media was switched to “Day 3-SP34” medium supplemented with 1 ng/ml Activin A (on day 3 only) and 3 μM CHIR99021 (on day 3 only) until day 6. On day 6, media was replaced by “Day 6-SP34” medium, until day 8. […]
(In general: A flow cytometer gives signals particle by particle.)

The test system of assay [5] is EHT cells. Briefly: EHT cell subculture with metabolic regulators, flow cytometry. It counts as cell-based, human. The settings on record: EHT cells; day 3; 2-DG 1 mM. The text has this: The RB9-CB1 human iPSC line (Woods, N.-B. et al. Brief report: efficient generation of hematopoietic precursors and progenitors from human pluripotent stem cell lines. Stem Cells 29, 1158-1164 (2011)) was co-cultured with mouse embryonic fibroblasts (MEFs, Millipore), passaged every six days and processed to form embryoid bodies (EBs) as described previously (Guibentif, C. et al. Single-Cell Analysis Identifies Distinct Stages of Human Endothelial to-Hematopoietic Transition. Cell Reports 19, 10-19 (2017)). The differentiation protocol used in this study was previously described (Ditadi, A. & Sturgeon, C. M. Directed differentiation of definitive hemogenic endothelium and hematopoietic progenitors from human pluripotent stem cells. Methods 101, 65-72 (2016)), however, small modifications were made to induce both primitive and definitive hematopoiesis, as indicated below and in FIG. 6, a. Newly-formed EBs were first kept in SFD medium supplemented with 1 ng/ml Activin A (on days 0-2) and 3 μM CHIR99021 (on day 2 only). At day 3, media was switched to “Day 3-SP34” medium supplemented with 1 ng/ml Activin A (on day 3 only) and 3 μM CHIR99021 (on day 3 only) until day 6. On day 6, media was replaced by “Day 6-SP34” medium, until day 8. In some experiments where indicated, to obtain a higher yield of HSC-like cells, EBs were kept until day 10: in this case, EBs were plated onto Matrigel (8 μg/cm2, Corning)-coated dishes on day 8 and kept until day 10. Media was changed every day, except on days 5 and 7. On day 8 or 10 (as indicated), EBs were singularized with 5-6 rounds of 5-minute incubations with TryPLE Express (Thermo Fisher Scientific). […]

Setting [6] is: day 6, single agent vs control (1-AA 4 mM, TCP 300 nM, C646 10 μM, CP 5 μM, shRNAs vs shScr).

SMILES strings stand for the structures. Entries after “also recorded” stand apart in the source; their conditions may differ. Like-named read-outs stand apart in the source and are kept apart here.

`CC(C)c1c(C(=O)Nc2ccccc2)c(-c2ccccc2)c(-c2ccc(F)cc2)n1CC[C@@H](O)C[C@@H](O)CC(=O)O` [atorvastatin]: the “DCA effect on CD43+CD45+ cells under co-treatment” value in assay [1] (day 3, Ato 0.5 μM with DCA 3 mM) is on record as “abrogated the effect of DCA”.

With `CC(C)CCC[C@@H](C)[C@H]1CC[C@H]2[C@@H]3CC=C4C[C@@H](O)CC[C@]4(C)[C@H]3CC[C@]12C` [cholesterol], in assay [2], the “degranulated NK cells (CD3-CD56+CD16+CD107+ cells)” value is recorded as 7.47 % of the population, the “increase in degranulated NK cells vs untreated control” value is “more than 2 fold”, the basal degranulation entry was “higher than ctrl” and the “level of degranulated NK cells when exposed to K562 cells” value is listed as “further increased; also recorded: except for Cholesterol treated cells”.

As to `CC1=NN(c2ccc(C(=O)O)cc2)C(=O)/C1=C/C1=CC=C(c2cc(C)c(C)cc2[NH+]([O-])O)C1` (stereo not shown) [C646], the “HE-derived CD43+CD45+ (CD45+) cell population” value (shortened to “HE-derived CD43+CD45+”) in assay [1] (setting [6]) is on record as “did not have an effect”.

`N#CC(C#N)=NNc1ccc(OC(F)(F)F)cc1` [FCCP, Carbonyl cyanide 4-(trifluoromethoxy)phenylhydrazone]: the TMRE signal result in assay [3] was “abrogated the TMRE signal”.

As for `CC(/C=C/C(=O)NO)=C\[C@@H](C)C(=O)c1ccc(N(C)C)cc1` [TSA, Trichostatin A], the “emergence of CD43+ hematopoietic cells” value in assay [1] (day 3, TSA 60 nM) was “impaired the emergence”.

Take `COCCNC(=O)Nc1ccc2nc(-c3cccs3)c(-c3cccs3)nc2c1` [ACSS2i]: the “DCA effect on CD43+CD45+ cells under co-treatment” value in assay [1] (day 6 of HE subculture, ACSS2i 5 μM with DCA 3 mM) is on record as “did not perturb the DCA effect”.

Regarding `N[C@@H]1C[C@H]1c1ccccc1` (racemic) [TCP, Tranylcypromine], in assay [1], the “HE-derived CD43+CD45+” value was “more”, the “increase in CD43+GPA+ cell frequency following UK5099 treatment when LSD1 is blocked or downregulated” value is listed as “could not detect an increase” and the “myeloid differentiation (CD43+CD45+CD33+CD11b+)” value is reported as “specifically increased myeloid differentiation”.

For `O=C(c1c2ccccc2cc2ccccc12)N1CCC(N2CCCC(C(=O)N3CCOCC3)C2)CC1` (stereo not shown) [CP], in assay [2], the “degranulated NK cells (CD3-CD56+CD16+CD107+ cells)” value is 18.3 % of the population, the “increase in degranulated NK cells vs untreated control” value is “more than 5 fold”, the basal degranulation entry is “higher than ctrl” and the “level of degranulated NK cells when exposed to K562 cells” value was “further increased; also recorded: increased degranulation”. Further, the “HE-derived CD43+CD45+” value in assay [1] (setting [6]) is given as “had the same effect as DCA”.

Turning to `O=CC[C@@H](O)[C@H](O)[C@H](O)CO` [2-DG, 2-Deoxy-D-glucose], the “proliferation rate (CellTrace Violet)” value in assay [4] and in assay [5] was “significantly reduced” throughout. For the same molecule, the “CD43+GPA+ cell population” value in assay [1] (day 3, 2-DG 1 mM) is on record as “less than 50 % of the control”. Further, the “CD43+ cell output from HE cells” value in assay [1] (day 3 of subculture, 2-DG 1 mM) was “significantly reduced”. In addition, the “CD43+CD45+ cell population” value in assay [1] (day 6, 2-DG 1 mM) is listed as “less than 50 % of the control”.
